Target: T1, human NK2 receptor (Homo sapiens, UniProt P21452)
T1 construct: expressed in transfected cells; host or cells: Chinese hamster ovary cells (membranes)
T1 sequence (P21452 1-398): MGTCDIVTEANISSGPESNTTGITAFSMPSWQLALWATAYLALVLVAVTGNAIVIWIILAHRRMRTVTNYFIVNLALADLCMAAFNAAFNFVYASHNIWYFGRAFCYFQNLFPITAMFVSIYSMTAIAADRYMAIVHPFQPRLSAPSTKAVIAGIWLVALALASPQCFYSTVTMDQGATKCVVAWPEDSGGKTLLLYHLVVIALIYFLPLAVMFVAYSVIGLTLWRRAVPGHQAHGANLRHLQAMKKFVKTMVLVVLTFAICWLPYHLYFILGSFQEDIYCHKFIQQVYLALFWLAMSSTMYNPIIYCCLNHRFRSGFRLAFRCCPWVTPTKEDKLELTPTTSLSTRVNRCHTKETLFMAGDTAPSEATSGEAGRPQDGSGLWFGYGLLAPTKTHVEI
Assay: affinity for the human NK2 receptor, competition with [^3 H] NKA for binding to membranes prepared from Chinese hamster ovary cells
Conditions: membranes from Chinese hamster ovary cells expressing the cloned human NK2 receptor, negative logarithm of the molar affinity
Protocol: The affinity of the compounds of formula (I) and their salts for the human NK2 receptor can be tested in vitro by testing their ability to compete with [^3 H] or [^125 I]NKA (neurokinin A) for binding to membranes prepared from Chinese hamster ovary cells expressing the cloned human NK2 receptor. In this method, washed Chinese hamster ovary cell membranes are prepared as described for the previous method where IM9 cells are used instead. The membranes are incubated (90 min, 25° C.) with [^3 H] or [^125 I]NKA and with a range of concentrations of the test compound. Non-specific binding was determined in the presence of 10 μM NKA.
The affinity of a selection of the compounds of the preceding Examples for the human NK2 receptor was tested in vitro by testing their ability to compete with [^3 H] NKA for binding to membranes prepared from Chinese hamster ovary cells expressing the cloned human NK2 receptor using the method set out on page 26.
The "pKi" measurement is the negative logarithm of the molar affinity of the compound for the receptor as determined in radioligand binding assays using standard protocols.

| Ki [nM] | Compound |
| --- | --- |
| 0.631 | O=C1CC[C@](CCN2CC(N3CCC(F)CC3)C2)(c2ccc(Cl)c(Cl)c2)CN1CC1CCC(F)(F)CC1 [Example 1] |
| 0.1 | O=C1CCC(CCN2CC(N3CCC(F)CC3)C2)(c2ccc(Cl)c(Cl)c2)CN1C1(C2CC2)CCCC1 (stereo not shown) [Example 3] |
| 0.0501 | O=C1CCC(CCN2CC(N3CCC(F)CC3)C2)(c2ccc(Cl)c(Cl)c2)CN1C1CCCCC1 (stereo not shown) [Example 2] |
| 2.51 | O=C1CCC(CCN2CC(N3CCC(F)CC3)C2)(c2ccc(Cl)c(Cl)c2)CN1CCC1CC1 (stereo not shown) [Example 4] |

Reference: patent publication US6262075A, “Piperidone tachykinin antagonists” (Pfizer Inc, priority 1996, dated 2001)
